Test results as given in the NIST ThermoML archive (doi:10.1021/je900550v).

Conditions: 101.33 kPa, Liquid; for speed of sound: Pulse-echo method; for mass density: Vibrating tube method

CC(C)C(=O)[O-].C[NH2+]CCO [2-hydroxy-N-methylethanaminium isobutyrate]
Conditions	mass density [kg/m3]	speed of sound [m/s]	viscosity [mPa·s]
278.15 K	1056.12	1670.2	–
278.4 K	1055.96	1669.4	–
278.65 K	1055.8	1668.6	–
278.9 K	1055.64	1667.8	–
279.15 K	1055.48	1667	–
279.4 K	1055.32	1666.2	–
279.65 K	1055.16	1665.4	–
279.9 K	1055	1664.7	–
280.15 K	1054.85	1663.9	–
280.4 K	1054.68	1663.1	–
280.65 K	1054.52	1662.3	–
280.9 K	1054.36	1661.5	–
281.15 K	1054.2	1660.8	–
281.4 K	1054.04	1660	–
281.65 K	1053.88	1659.2	–
281.9 K	1053.72	1658.5	–
282.15 K	1053.56	1657.7	–
282.4 K	1053.4	1657	–
282.65 K	1053.24	1656.2	–
282.9 K	1053.08	1655.4	–
283.15 K	1052.92	1654.7	–
283.4 K	1052.76	1653.9	–
283.65 K	1052.6	1653.2	–
283.9 K	1052.43	1652.4	–
284.15 K	1052.27	1651.7	–
284.4 K	1052.11	1650.9	–
284.65 K	1051.95	1650.2	–
284.9 K	1051.79	1649.4	–
285.15 K	1051.63	1648.7	–
285.4 K	1051.47	1647.9	–
285.65 K	1051.31	1647.2	–
285.9 K	1051.14	1646.4	–
286.15 K	1050.98	1645.9	–
286.4 K	1050.82	1645.2	–
286.65 K	1050.66	1644.4	–
286.9 K	1050.49	1643.7	–
287.15 K	1050.33	1642.9	–
287.4 K	1050.17	1642.2	–
287.65 K	1050.01	1641.5	–
287.9 K	1049.85	1640.7	–
288.15 K	1049.68	1640	301.35
288.4 K	1049.52	1639.3	–
288.65 K	1049.36	1638.5	–
288.9 K	1049.19	1637.8	–
289.15 K	1049.03	1637.1	–
289.4 K	1048.87	1636.3	–
289.65 K	1048.72	1635.6	–
289.9 K	1048.56	1634.9	–
290.15 K	1048.41	1634.2	–
290.4 K	1048.25	1633.4	–
290.65 K	1048.09	1632.7	–
290.9 K	1047.94	1632	–
291.15 K	1047.79	1631.2	–
291.4 K	1047.63	1630.5	–
291.65 K	1047.47	1629.8	–
291.9 K	1047.31	1629.1	–
292.15 K	1047.16	1628.4	–
292.4 K	1047	1627.7	–
292.65 K	1046.84	1626.9	–
292.9 K	1046.68	1626.2	–
293.15 K	1046.53	1625.5	220.69
293.4 K	1046.37	1624.8	–
293.65 K	1046.21	1624.1	–
293.9 K	1046.06	1623.4	–
294.15 K	1045.9	1622.7	–
294.4 K	1045.74	1622	–
294.65 K	1045.59	1621.2	–
294.9 K	1045.43	1620.5	–
295.15 K	1045.27	1619.8	–
295.4 K	1045.11	1619.1	–
295.65 K	1044.96	1618.4	–
295.9 K	1044.8	1617.7	–
296.15 K	1044.63	1617	–
296.4 K	1044.48	1616.3	–
296.65 K	1044.32	1615.6	–
296.9 K	1044.17	1614.9	–
297.15 K	1044.01	1614.2	–
297.4 K	1043.84	1613.4	–
297.65 K	1043.68	1612.7	–
297.9 K	1043.52	1612	–
298.15 K	1043.37	1611.3	163.08
298.4 K	1043.2	1610.6	–
298.65 K	1043.05	1609.9	–
298.9 K	1042.89	1609.2	–
299.15 K	1042.73	1608.5	–
299.4 K	1042.57	1607.8	–
299.65 K	1042.41	1607.1	–
299.9 K	1042.25	1606.3	–
300.15 K	1042.09	1605.6	–
300.4 K	1041.93	1604.9	–
300.65 K	1041.77	1604.2	–
300.9 K	1041.61	1603.5	–
301.15 K	1041.45	1602.8	–
301.4 K	1041.29	1602.1	–
301.65 K	1041.13	1601.4	–
301.9 K	1040.96	1600.7	–
302.15 K	1040.81	1600	–
302.4 K	1040.64	1599.3	–
302.65 K	1040.49	1598.6	–
302.9 K	1040.32	1597.8	–
303.15 K	1040.17	1597.2	124.67
303.4 K	1040	1596.4	–
303.65 K	1039.84	1595.7	–
303.9 K	1039.68	1595	–
304.15 K	1039.52	1594.3	–
304.4 K	1039.36	1593.6	–
304.65 K	1039.19	1592.9	–
304.91 K	1039.03	1592.2	–
305.15 K	1038.87	1591.5	–
305.4 K	1038.71	1590.8	–
305.65 K	1038.55	1590.1	–
305.9 K	1038.39	1589.4	–
306.15 K	1038.23	1588.7	–
306.4 K	1038.06	1588	–
306.65 K	1037.9	1587.3	–
306.9 K	1037.74	1586.6	–
307.15 K	1037.58	1585.9	–
307.4 K	1037.41	1585.2	–
307.65 K	1037.25	1584.5	–
307.9 K	1037.09	1583.8	–
308.15 K	–	–	98.28
